In assay [1] the test system is MalA′. Kind of assay: Co-crystallization with MalA′. Type of assay: binding, Malbranchea graminicola. How it is done: Crystallization conditions. […] The purified MalA′ was dialyzed overnight into a 20 mM HEPES pH 7 buffer with 200 mM NaCl or 300 mM NaCl to remove glycerol, and then supplemented with an equimolar quantity of FAD. […] For active site complexes with compounds 2, 3, and 4, MalA′ was pre-incubated with a four-fold molar excess of substrate. Crystals were grown by vapor diffusion from 1:2 mixtures of 5 mg/mL MalA′ pre-incubated with compound 2, 3 or 4 and a well solution containing 2 M (NH4)2SO4, 0.2 M Li2SO4, 5 mM CdCl2, and 0.1 M Bis-Tris pH 5.5. Crystals were cryoprotected in well solution augmented with 10% glycerol and flash-cooled in liquid nitrogen.

In assay [2] the target is T1, MalA (Malbranchea aurantiaca, UniProt L0E155).
T1 construct: The malA coding region was amplified from the cDNA template by PCR; made in house; host or cells: E. coli BL21 (DE3) with pGro7 (GroEL/GroES) chaperone plasmid
T1 sequence (L0E155 whole entry): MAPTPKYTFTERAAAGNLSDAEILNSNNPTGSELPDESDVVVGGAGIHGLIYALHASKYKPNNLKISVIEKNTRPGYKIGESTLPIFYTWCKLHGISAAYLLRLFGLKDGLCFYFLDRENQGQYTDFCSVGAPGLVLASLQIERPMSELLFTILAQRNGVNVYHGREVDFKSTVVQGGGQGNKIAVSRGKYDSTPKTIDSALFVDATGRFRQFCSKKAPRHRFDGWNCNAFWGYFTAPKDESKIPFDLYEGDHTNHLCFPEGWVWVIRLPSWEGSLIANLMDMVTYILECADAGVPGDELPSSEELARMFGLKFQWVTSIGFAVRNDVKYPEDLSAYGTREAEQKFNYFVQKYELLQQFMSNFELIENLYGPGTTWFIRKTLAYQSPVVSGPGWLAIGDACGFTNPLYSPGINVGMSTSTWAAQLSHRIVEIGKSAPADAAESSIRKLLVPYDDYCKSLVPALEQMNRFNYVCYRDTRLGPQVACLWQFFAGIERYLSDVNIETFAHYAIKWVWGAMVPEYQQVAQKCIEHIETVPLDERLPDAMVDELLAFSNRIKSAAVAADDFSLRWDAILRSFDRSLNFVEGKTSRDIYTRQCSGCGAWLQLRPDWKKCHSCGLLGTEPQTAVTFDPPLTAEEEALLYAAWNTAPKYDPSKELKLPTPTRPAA
Kind of assay: Michaelis-Menten kinetics of MalA chlorination reactions. The class given is biochemical. How it is done: Substrates malbrancheamide B (compound 3) and isomalbrancheamide B (compound 4) to product malbrancheamide (compound 1). Reactions were set up in a total volume of 250 μL with the following components: 1.1 μM MalA, 44 μM HpaC flavin reductase, 100 μM FAD, 50 mM NaCl, 3.6 mM NADH, and a variety of substrate concentrations ranging from 1 μM to 60 μM. Reactions were quenched with methanol by removing 50 μL at each time point (2, 5, 10, 15 minutes). Reactions were analyzed on a Schimadzu HPLC with the following LC time program: 40% acetonitrile for 1 minute, gradient over 6 minutes from 40-85% acetonitrile, 85% acetonitrile for 1 minute, gradient over 1 minute to 40% acetonitrile, re-equilibration to 40% acetonitrile for 3 minutes. The absorbance was measured at 240 nm and the mobile phase consisted of water and acetonitrile. A Phenomenex Lux cellulose-3, cellulose Tris (4-methylbenzoate) 250×4.6 mm column was used for separation. GraphPad Prism (Version 6.01) software was used to plot the initial velocities against the substrate concentration and to determine the kinetic constants kcat and Km.
Substrate premalbrancheamide (compound 2) to products isomalbrancheamide B (compound 4) and malbrancheamide B (compound 3). Reactions were set up in a total volume of 250 μL with the following components: 1.8 μM MalA, 44 μM HpaC, 100 μM FAD, 50 mM NaCl, 3.6 mM NADH, and a variety of substrate concentrations ranging from 5 μM to 80 μM. Reactions were quenched with 100 μL methanol by removing 50 μL at each time point (2, 5, 7, 10 minutes). Reactions were analyzed on a Schimadzu HPLC with the following LC time program: 34% acetonitrile for 1 minute, gradient over 11 minutes to 62% acetonitrile, 62% acetonitrile for 30 seconds, gradient over 30 seconds to 34% acetonitrile, re-equilibration to 34% for 3 minutes. The absorbance was measured at 240 nm and the mobile phase consisted of water and acetonitrile. A Phenomenex Lux cellulose-3 Tris (4-methylbenzoate) 250×4.6 mm column was used for separation.
Michaelis-Menten kinetic parameters were determined for the natural chlorination reactions of MalA. […] These catalytic efficiencies are fairly high compared to those of the eukaryotic FDH Rdc2, which are 2.93 min−1 mM−1 for the initial chlorination reaction and 0.11 min−1 mM−1 for the second chlorination reaction.^4

Setting [3] is: chlorination, compound 2 to compound 3.
Setting [4] is: chlorination, compound 2 to compound 4.
Where [5] appears, read: second chlorination, to compound 1.

The term Km denotes the substrate concentration at which the rate is half of its maximum. The term kcat denotes the number of substrate molecules converted per active site and unit of time at saturation.

As for `CC1(C)c2[nH]c3cc(Cl)c(Cl)cc3c2C[C@@]23CN4CCC[C@]4(C[C@@H]12)C(=O)N3` [compound 1, malbrancheamide], the “binding in MalA′ crystals” value in assay [1] is reported as “did not bind in crystals”.

As for `CC1(C)c2[nH]c3ccccc3c2CC23CN4CCCC4(CC21)C(=O)N3` (stereo not drawn) [compound 2, premalbrancheamide], in assay [2] (setting [3]), the Michaelis-Menten constant (Km) turned out to be 7 µM and the kcat came to 0.0013 s⁻¹. Moreover, in assay [2] (setting [4]), the Michaelis constant (Km) was found to be 7.5 µM and the kcat was determined as 0.0015 s⁻¹.

For `CC1(C)c2[nH]c3cc(Cl)ccc3c2C[C@@]23CN4CCC[C@]4(C[C@@H]12)C(=O)N3` [compound 3, malbrancheamide B], in assay [2] (setting [5]), the Michaelis constant (Km) is 4.4 µM and the kcat was 0.002 s⁻¹.

Turning to `CC1(C)c2[nH]c3ccc(Cl)cc3c2C[C@@]23CN4CCC[C@]4(C[C@@H]12)C(=O)N3` [compound 4, isomalbrancheamide B], in assay [2] (setting [5]), the Km stood at 4 µM and the turnover number (kcat) turned out to be 0.002 s⁻¹.

For the origin of these results see patent US12252714B2, “Halogenation of complex organic compounds” (REGENTS OF THE UNIVERSITY OF MICHIGAN, priority 2018, dated 2025).
